Results as given in ChEMBL document CHEMBL1201862, “PubChem BioAssay data set” (2004).
Calls of active or inactive are those of the source.

Legend:
[1] = molecular target: Luciferin 4-monooxygenase (Photinus pyralis, UniProt P08659); assay: firefly luciferase enzyme inhibitors, dose response, biochemical, luminescence (AID 1891)
[2] = Luminescence Cell-Based Dose Confirmation HTS to Identify Inhibitors of Platelet Dense Granule Release. [Related pubchem assays: 1663 (Primary HTS), 1678 (Summary of Project)]; type: functional
[3] = molecular target: Induced myeloid leukemia cell differentiation protein Mcl-1 (Homo sapiens, UniProt Q07820); type: functional
[4] = molecular target: T1, Replicative DNA helicase DnaB (Mycobacterium tuberculosis, UniProt P9WMR3); assay: DnaB intein splicing inhibitors, dose response, biochemical, cell-free fluorescence (AID 449749); type: functional
T1 sequence (P9WMR3 whole entry): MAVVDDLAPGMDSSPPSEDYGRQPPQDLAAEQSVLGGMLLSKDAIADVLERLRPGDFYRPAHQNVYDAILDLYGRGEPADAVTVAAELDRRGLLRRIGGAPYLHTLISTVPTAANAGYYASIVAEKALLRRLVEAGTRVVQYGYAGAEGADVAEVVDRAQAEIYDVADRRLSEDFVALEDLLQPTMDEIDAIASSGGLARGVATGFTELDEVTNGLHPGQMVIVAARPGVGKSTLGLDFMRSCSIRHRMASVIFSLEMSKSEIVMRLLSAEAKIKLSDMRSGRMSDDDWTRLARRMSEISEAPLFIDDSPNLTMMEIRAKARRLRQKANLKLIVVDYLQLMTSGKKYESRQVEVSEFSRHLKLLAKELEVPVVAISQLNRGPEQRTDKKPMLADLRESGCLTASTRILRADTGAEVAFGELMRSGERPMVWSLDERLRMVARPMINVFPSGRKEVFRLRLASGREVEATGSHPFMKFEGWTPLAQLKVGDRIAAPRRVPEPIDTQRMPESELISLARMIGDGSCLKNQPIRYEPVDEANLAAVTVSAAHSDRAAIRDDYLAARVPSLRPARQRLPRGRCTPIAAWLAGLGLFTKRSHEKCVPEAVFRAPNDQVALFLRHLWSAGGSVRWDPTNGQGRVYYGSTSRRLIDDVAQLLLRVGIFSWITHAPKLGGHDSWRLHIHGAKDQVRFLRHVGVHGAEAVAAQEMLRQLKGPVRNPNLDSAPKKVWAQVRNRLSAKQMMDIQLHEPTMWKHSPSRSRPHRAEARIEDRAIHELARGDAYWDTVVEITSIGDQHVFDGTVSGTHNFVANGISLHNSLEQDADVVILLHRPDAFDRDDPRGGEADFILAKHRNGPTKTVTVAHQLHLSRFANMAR

Protein RecA = molecular target: T2, Protein RecA (Mycobacterium tuberculosis, UniProt P9WHJ3); assay: Fluorescence Cell-Free Homogeneous Dose Retest to Identify Inhibitors of RecA-Intein Splicing Activity. [Related pubchem assays (depositor defined):AID2097, AID2223, AID489010, AID492950]; type: functional
T2 sequence (P9WHJ3 whole entry): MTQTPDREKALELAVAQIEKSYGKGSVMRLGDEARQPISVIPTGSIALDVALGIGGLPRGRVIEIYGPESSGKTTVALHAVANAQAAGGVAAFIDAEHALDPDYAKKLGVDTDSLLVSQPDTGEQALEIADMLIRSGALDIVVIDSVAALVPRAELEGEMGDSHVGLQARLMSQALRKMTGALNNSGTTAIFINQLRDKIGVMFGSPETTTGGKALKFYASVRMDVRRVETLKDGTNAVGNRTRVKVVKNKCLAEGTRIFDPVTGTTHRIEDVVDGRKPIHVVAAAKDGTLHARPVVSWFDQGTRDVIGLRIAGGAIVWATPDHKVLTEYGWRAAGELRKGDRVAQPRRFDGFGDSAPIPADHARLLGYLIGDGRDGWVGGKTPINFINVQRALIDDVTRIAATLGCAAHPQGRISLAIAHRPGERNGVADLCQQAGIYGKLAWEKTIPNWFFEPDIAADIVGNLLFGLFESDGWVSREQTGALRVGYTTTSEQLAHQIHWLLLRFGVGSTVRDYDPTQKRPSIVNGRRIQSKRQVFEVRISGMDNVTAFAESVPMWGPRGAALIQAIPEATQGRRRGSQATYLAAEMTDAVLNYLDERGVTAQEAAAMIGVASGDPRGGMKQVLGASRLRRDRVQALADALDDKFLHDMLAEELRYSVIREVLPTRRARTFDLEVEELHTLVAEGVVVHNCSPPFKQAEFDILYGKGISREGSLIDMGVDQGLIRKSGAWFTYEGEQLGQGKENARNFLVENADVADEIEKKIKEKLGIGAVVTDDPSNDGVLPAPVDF

Genome polyprotein = Genome polyprotein (dengue virus type 2, UniProt P29990); assay: Dengue-2 NS5 methyltransferase inhibitors, primary screen, biochemical, confirmation dose response (AID 588689); type: functional
[5] = molecular target: T3, Polyadenylate-binding protein 1 (Homo sapiens, UniProt P11940); assay: PABP1 MLLE–PAM2 interaction inhibitors, dose response, miRNA deadenylation inhibitor project, biochemical, fluorescence polarization, Cy5-PAM2 peptide, secondary (AID 602260); type: functional; conditions: read-out: IC50_Mean
[6] = molecular target: T3, Polyadenylate-binding protein 1; assay: PABP1 MLLE–PAM2 binding inhibitor potency, dose response, biochemical, fluorescence polarization, FITC-PAM2 peptide (AID 602259); type: functional; conditions: read-out: IC50_Mean
[7] = molecular target: T4, Histone-lysine N-methyltransferase NSD2 (Homo sapiens, UniProt O96028); type: biochemical
T4 sequence (O96028 whole entry): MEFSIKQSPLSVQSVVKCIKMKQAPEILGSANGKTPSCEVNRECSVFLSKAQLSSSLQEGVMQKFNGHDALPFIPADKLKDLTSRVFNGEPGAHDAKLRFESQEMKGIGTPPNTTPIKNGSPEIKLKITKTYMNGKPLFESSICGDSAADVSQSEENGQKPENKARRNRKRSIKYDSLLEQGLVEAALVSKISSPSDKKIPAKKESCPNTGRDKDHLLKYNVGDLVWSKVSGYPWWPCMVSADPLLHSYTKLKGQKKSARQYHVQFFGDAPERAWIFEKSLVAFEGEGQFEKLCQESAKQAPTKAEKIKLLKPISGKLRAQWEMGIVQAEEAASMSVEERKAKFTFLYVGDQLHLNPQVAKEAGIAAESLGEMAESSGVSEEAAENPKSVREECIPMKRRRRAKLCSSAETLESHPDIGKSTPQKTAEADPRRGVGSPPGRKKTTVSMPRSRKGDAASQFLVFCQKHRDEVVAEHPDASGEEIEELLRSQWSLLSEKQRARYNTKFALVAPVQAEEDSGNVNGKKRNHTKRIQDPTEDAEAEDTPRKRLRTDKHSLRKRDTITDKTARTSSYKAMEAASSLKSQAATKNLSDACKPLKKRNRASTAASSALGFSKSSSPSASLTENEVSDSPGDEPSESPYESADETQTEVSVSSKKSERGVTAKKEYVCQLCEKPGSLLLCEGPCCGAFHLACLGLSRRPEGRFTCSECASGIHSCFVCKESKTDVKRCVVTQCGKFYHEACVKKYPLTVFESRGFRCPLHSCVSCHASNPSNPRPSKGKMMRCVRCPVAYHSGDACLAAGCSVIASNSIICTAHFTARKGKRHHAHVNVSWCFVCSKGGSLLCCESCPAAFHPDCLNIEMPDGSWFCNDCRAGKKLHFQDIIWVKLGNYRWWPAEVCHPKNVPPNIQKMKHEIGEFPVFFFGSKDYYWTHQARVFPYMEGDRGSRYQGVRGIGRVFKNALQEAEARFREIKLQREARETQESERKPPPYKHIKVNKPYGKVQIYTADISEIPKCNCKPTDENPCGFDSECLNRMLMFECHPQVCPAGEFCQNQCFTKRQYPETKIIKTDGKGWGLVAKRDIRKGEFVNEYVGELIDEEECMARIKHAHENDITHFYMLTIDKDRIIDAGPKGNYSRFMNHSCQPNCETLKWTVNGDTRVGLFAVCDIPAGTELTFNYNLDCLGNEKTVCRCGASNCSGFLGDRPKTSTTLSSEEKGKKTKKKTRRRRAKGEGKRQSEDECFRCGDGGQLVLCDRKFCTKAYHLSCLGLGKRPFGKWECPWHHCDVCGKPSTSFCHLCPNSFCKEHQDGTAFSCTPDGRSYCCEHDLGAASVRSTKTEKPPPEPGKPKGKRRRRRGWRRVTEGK

BJ [8] = assay: cytotoxicity toward BJ-TERT fibroblasts, dose response, cell-based, RAS-independent, luminescence (AID 1933); type: functional; conditions: Homo sapiens
BJ [9] = assay: cells; type: functional, cell-based; conditions: Homo sapiens
BJ [10] = assay: cytotoxicity toward BJ-TERT-LT-ST fibroblasts, dose response, cell-based, RAS-independent, luminescence (AID 1935); type: functional; conditions: Homo sapiens;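 note: BJ fibroblasts immortalized with TERT plus LT and ST oncogenes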
[11] = cytotoxicity toward DRD oncogenic fibroblasts, dose response, cell-based, non-viral oncogenic, luminescence (AID 1934); type: functional; conditions: Homo sapiens
[12] = Luminescence Cell-Based Dose Retest to Confirm Inhibitors of Cancer Stem Cells. [Related pubchem assays (depositor defined):AID2717, AID2721]; type: functional; conditions: Homo sapiens
Nonstructural protein 1 = Nonstructural protein 1 (Influenza A virus, UniProt Q194T2); type: functional, Influenza A virus (A/California/07/2009(H1N1))
BJ [13] = assay: cytotoxicity toward Ras-transformed BJeLR fibroblasts, dose response, cell-based, alamar blue fluorescence, cherrypicked samples (AID 2631); type: functional; conditions: Homo sapiens;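 note: confirmatory dose-response assay in RAS-dependent BJ fibroblasts engineered with TERT, LT and ST, with cytotoxicity read by fluorescence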
[14] = molecular target: T5, Heat shock factor protein 1 (Mus musculus, UniProt P38532); assay: inhibition of MG132-induced HSE-luciferase signal, confirmation, cell-based, NIH3T3, luminescence, dose retest (AID 2382); type: functional;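 note: NIH3T3 fibroblasts with HSF1-driven luciferase reporter stressed by proteasome inhibitor MG132; luminescence from HSF1-driven luciferase expression after 8 hours of MG132 stress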
T5 sequence (P38532 whole entry): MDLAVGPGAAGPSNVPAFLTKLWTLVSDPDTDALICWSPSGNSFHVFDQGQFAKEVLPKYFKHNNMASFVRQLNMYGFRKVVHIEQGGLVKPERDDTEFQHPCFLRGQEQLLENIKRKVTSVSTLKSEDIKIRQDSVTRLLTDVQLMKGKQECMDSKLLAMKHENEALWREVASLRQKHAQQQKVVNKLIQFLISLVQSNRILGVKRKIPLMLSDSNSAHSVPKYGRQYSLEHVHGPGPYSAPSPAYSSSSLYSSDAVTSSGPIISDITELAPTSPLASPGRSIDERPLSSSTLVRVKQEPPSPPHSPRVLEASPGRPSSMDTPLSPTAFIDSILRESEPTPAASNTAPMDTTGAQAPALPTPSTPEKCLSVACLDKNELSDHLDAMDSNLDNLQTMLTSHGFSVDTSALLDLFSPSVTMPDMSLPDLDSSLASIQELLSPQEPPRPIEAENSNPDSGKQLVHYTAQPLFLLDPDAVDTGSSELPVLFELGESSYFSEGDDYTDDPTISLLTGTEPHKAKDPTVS

[15] = HepG2 cell cytotoxicity, dose response, cytotoxicity control, plate reader, cherry-pick, antagonist series (AID 743416); type: functional, cell-based
[16] = HEK293 cell cytotoxicity, dose response, cytotoxicity control, plate reader, cherry-picked samples (AID 743446); type: functional, cell-based

Luciferin 4-monooxygenase, sequence (P08659 whole entry): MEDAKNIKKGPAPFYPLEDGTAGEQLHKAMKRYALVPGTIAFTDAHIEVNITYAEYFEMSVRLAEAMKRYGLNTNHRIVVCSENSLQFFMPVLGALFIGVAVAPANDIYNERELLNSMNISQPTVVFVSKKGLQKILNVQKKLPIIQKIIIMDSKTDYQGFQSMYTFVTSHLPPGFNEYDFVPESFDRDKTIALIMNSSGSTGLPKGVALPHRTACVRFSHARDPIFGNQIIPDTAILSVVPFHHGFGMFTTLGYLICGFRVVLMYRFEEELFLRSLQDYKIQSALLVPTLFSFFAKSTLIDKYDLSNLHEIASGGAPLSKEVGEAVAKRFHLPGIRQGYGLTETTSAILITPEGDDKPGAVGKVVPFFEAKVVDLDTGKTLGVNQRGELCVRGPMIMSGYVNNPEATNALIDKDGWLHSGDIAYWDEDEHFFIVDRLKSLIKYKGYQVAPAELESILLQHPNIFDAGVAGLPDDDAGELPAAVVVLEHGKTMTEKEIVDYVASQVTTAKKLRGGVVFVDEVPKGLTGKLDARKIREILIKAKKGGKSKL
T3 sequence (P11940 whole entry): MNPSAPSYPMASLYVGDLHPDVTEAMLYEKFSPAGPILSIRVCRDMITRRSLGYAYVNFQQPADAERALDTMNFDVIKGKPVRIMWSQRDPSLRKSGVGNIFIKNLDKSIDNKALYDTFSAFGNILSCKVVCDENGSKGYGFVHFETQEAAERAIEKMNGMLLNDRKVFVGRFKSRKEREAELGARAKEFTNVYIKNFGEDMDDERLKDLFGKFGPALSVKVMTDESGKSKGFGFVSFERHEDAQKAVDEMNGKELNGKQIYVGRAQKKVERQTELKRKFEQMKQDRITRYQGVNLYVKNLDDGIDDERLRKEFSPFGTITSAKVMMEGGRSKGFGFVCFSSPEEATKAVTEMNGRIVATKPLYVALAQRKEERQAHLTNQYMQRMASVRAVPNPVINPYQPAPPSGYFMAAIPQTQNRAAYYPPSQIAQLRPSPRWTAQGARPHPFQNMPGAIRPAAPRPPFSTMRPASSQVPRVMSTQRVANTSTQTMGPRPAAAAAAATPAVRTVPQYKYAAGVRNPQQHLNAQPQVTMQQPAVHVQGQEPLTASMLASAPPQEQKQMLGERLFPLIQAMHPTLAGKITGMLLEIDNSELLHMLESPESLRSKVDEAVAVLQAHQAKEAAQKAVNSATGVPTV
Nonstructural protein 1, sequence (Q194T2 whole entry): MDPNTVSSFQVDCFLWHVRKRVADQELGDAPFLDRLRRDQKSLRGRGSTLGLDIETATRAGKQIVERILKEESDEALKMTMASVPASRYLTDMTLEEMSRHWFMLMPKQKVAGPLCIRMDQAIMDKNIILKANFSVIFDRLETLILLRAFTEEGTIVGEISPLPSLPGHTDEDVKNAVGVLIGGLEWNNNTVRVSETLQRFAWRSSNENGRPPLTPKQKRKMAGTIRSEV
Genome polyprotein, sequence (P29990 2492-3391 limits assumed): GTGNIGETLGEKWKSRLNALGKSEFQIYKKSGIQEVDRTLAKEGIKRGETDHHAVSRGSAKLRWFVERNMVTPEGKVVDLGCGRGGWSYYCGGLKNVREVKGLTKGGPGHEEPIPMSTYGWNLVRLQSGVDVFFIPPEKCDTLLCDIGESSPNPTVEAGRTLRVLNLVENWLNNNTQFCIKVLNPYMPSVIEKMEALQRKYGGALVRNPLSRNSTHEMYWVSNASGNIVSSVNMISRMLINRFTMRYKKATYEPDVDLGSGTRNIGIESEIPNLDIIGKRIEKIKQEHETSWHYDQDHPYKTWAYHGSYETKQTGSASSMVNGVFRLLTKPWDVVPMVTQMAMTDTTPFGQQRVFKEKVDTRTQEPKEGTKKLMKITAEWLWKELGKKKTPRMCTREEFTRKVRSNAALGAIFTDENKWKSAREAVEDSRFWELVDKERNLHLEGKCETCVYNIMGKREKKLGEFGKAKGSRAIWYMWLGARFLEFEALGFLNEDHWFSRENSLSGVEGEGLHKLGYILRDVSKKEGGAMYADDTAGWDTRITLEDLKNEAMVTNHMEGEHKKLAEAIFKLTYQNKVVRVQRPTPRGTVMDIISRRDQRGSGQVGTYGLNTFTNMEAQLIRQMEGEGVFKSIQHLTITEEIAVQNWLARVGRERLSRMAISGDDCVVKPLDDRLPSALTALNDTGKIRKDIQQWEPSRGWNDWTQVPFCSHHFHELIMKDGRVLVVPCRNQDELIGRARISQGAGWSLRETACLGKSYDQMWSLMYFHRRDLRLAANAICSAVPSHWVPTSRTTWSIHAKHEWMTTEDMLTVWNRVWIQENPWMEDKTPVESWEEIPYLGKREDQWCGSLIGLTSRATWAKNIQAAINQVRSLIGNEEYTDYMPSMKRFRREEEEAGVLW
Induced myeloid leukemia cell differentiation protein Mcl-1, sequence (Q07820 whole entry): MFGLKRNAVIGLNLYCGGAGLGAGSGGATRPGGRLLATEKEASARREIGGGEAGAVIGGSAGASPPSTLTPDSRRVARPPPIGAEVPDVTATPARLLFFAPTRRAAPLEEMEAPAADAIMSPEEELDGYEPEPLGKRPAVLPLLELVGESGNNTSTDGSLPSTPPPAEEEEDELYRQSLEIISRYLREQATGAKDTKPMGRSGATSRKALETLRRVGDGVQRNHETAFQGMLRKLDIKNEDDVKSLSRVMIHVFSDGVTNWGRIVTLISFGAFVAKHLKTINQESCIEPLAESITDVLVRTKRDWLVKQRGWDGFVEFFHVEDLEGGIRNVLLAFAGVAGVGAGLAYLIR

SMILES: CN(C)CCN(Cc1ccccc1)S(=O)(=O)c1ccc(-c2ccc(O)nn2)s1
- EC50 [1]: > 112 µM (not active)
- EC50 [2]: 6.77 µM (active)

SMILES: CC(=O)c1cc(O)c2ccccc2c1O
- IC50 [3]: 5.99 µM (active)
- AC50 [4]: > 380 µM (inactive)
- EC50 (Protein RecA): 2.82 µM (active)
- IC50 (Genome polyprotein): 29.7 µM (active)
- IC50 [5]: > 66 µM (inactive)
- IC50 [6]: > 66 µM (inactive)
- AC50 [7]: 10.6 µM (active)

SMILES: Cc1ccc(NC(=O)COc2ccc(C(=O)NCCc3ccccc3)cc2)cc1
- EC50 [1]: > 112 µM (not active)
- EC50 [2]: > 112 µM (not active)

SMILES: CCN(CC)CCCNC(=O)c1cc(-c2ccccc2)c(N2CCCCC2)s1
- EC50 (BJ [8]): 9.67 µM (active)
- EC50 (BJ [9]): 28.8 µM (active)
- EC50 (BJ [10]): 12.8 µM (inconclusive)
- EC50 [11]: 10.1 µM (active)
- AC50 [12]: 3.79 µM (active)
- IC50 (Nonstructural protein 1): 88.3 µM (active)
- EC50 (BJ [13]): > 133 µM (inactive)

SMILES: Cc1cc2c(cc1C)NC(c1ccccn1)C1=C(O)CC(C)(C)CC1=N2 (stereo unspecified)
- EC50 [1]: > 112 µM (not active)
- EC50 [2]: > 112 µM (not active)

SMILES: O=S(=O)(Nc1ccc(O)c2ccccc12)c1ccc(OC(F)(F)F)cc1
- EC50 [14]: > 195 µM (not active)
- AC50 [12]: 6.55 µM (active)
- AC50 [4]: 0.26 µM (active)
- EC50 (Protein RecA): 0.0666 µM (active)
- AC50 [15]: > 52 µM (inactive)
- AC50 [16]: 24.9 µM (active)
